System: female Sprague-Dawley mature and young adult rats
Assay: Ex vivo peripheral quantitative computed tomography (pQCT) of right femur (metaphysis, diaphysis, length)
Assay type: in vivo, rat
Conditions: Young Adults; for pQCT femur (diaphysis) CSMI / pQCT femur (diaphysis) Cortical Area / pQCT femur (diaphysis) Cortical BMC / pQCT femur (diaphysis) Cortical BMD / pQCT femur (diaphysis) Cortical Thickness / pQCT femur (diaphysis) Endosteal Circumference / pQCT femur (diaphysis) Periosteal Circumference / pQCT femur (diaphysis) Total Area / pQCT femur (diaphysis) Total BMC / pQCT femur (diaphysis) Total BMD / pQCT femur Length / pQCT femur metaphysis C/SC (Cortical/Subcortical) BMC / pQCT femur metaphysis C/SC (Cortical/Subcortical) BMD / pQCT femur metaphysis Total Area / pQCT femur metaphysis Total BMC / pQCT femur metaphysis Total BMD / pQCT femur metaphysis Trabecular BMC / pQCT femur metaphysis Trabecular BMD: mean
Experimental: The following were evaluated: clinical signs (at least weekly), body weight (weekly), food consumption (weekly), hormones (Days 13 and 27), serum and urinary biochemical markers of bone turnover (Days 13 and 27), serum chemistry (at necropsy), bone densitometry by dual energy X-ray absorptiometry (DXA) and peripheral quantitative computed tomography (pQCT) (Week 2 and 4, as well as ex vivo), macroscopic observations at necropsy, organ weights, histopathology, biomechanical strength testing and femoral length measurements.
3.2 Ex Vivo Peripheral Quantitative Computed Tomography (pQCT)
Peripheral QCT scans were performed ex vivo using an XCT Research SA or SA+ bone scanner with software version 5.50D. Scans were obtained for the right femur, L3 and L4 lumbar vertebra for all animals euthanized at the end of the treatment period as well as two found dead animals. These two animals were scanned twice due to technical oversight, however only the first scans obtained were reported and the second scans were kept with the study file, this had no impact on the study as both scans were considered equivalent.
For the femurs, the scanned site was at the expected 3-point bending fracture site (diaphysis). This site was analyzed using Cortmode 2 for cortical bone measurements only (Table 5). An additional slice was obtained in the metaphysis. The metaphysis scan was not performed for the femur of three animals due to condyles detachment from the femur during trimming.
The femoral length was measured as part of the ex vivo pQCT scanning procedures and was reported for the right femur of all animals with the exception of 3 animas due to damaged femoral condyles.
All analyses were performed using the LOOP option of the analysis software. All other data generated as a result of the LOOP option were retained with the raw data but not reported. The most appropriate analysis mode for the femur and the lumbar vertebrae was used and documented in the raw data and the analysis details are presented in Table 6. All scan analysis data was retained and re-analyses documented.

Structure (SMILES): COc1ccc(Cc2c(OC3OC(CO)C(F)C(O)C3O)n[nH]c2C(F)(F)F)cc1 (stereo not drawn) [Example 5 of formula II]
- pQCT femur (diaphysis) CSMI, percent difference from Vehicle Control (10 mg/kg/day): −1.3%
- pQCT femur (diaphysis) Cortical Area, percent difference from Vehicle Control (10 mg/kg/day): −0.4%
- pQCT femur (diaphysis) Cortical BMC, percent difference from Vehicle Control (10 mg/kg/day): −0.8%
- pQCT femur (diaphysis) Cortical BMD, percent difference from Vehicle Control (10 mg/kg/day): −0.4%
- pQCT femur (diaphysis) Cortical Thickness, percent difference from Vehicle Control (10 mg/kg/day): 0.15%
- pQCT femur (diaphysis) Endosteal Circumference, percent difference from Vehicle Control (10 mg/kg/day): −0.7%
- pQCT femur (diaphysis) Periosteal Circumference, percent difference from Vehicle Control (10 mg/kg/day): −1.2%
- pQCT femur (diaphysis) Total Area, percent difference from Vehicle Control (10 mg/kg/day): −0.9%
- pQCT femur (diaphysis) Total BMC, percent difference from Vehicle Control (10 mg/kg/day): 0.2%
- pQCT femur (diaphysis) Total BMD, percent difference from Vehicle Control (10 mg/kg/day): 1.1%
- pQCT femur Length, percent difference from Vehicle Control (10 mg/kg/day): −3.8%
- pQCT femur metaphysis C/SC BMC, percent difference from Vehicle Control (10 mg/kg/day): 10.7%
- pQCT femur metaphysis C/SC BMD, percent difference from Vehicle Control (10 mg/kg/day): 6.8%
- pQCT femur metaphysis Total Area, percent difference from Vehicle Control (10 mg/kg/day): 3.7%
- pQCT femur metaphysis Total BMC, percent difference from Vehicle Control (10 mg/kg/day): 16.7%
- pQCT femur metaphysis Total BMD, percent difference from Vehicle Control (10 mg/kg/day): 12.6%
- pQCT femur metaphysis Trabecular BMC, percent difference from Vehicle Control (10 mg/kg/day): 41.4%
- pQCT femur metaphysis Trabecular BMD, percent difference from Vehicle Control (10 mg/kg/day): 36.4%
- pQCT femur (diaphysis) CSMI (10 mg/kg/day): 3.8 mm^4
- pQCT femur (diaphysis) Cortical Area (10 mg/kg/day): 4.7 mm^2
- pQCT femur (diaphysis) Cortical BMC (10 mg/kg/day): 5.6 mg/mm
- pQCT femur (diaphysis) Cortical BMD (10 mg/kg/day): 1182.8 mg/cm^3
- pQCT femur (diaphysis) Cortical Thickness (10 mg/kg/day): 0.54 mm
- pQCT femur (diaphysis) Endosteal Circumference (10 mg/kg/day): 6.9 mm
- pQCT femur (diaphysis) Periosteal Circumference (10 mg/kg/day): 10.2 mm
- pQCT femur (diaphysis) Total Area (10 mg/kg/day): 8.6 mm^2
- pQCT femur (diaphysis) Total BMC (10 mg/kg/day): 6.2 mg/mm
- pQCT femur (diaphysis) Total BMD (10 mg/kg/day): 721.8 mg/cm^3
- pQCT femur Length (10 mg/kg/day): 31.9 mm
- pQCT femur metaphysis C/SC (Cortical/Subcortical) BMC (10 mg/kg/day): 7.9 mg/mm
- pQCT femur metaphysis C/SC (Cortical/Subcortical) BMD (10 mg/kg/day): 877.1 mg/cm^3
- pQCT femur metaphysis Total Area (10 mg/kg/day): 15.0 mm^2
- pQCT femur metaphysis Total BMC (10 mg/kg/day): 10.3 mg/mm
- pQCT femur metaphysis Total BMD (10 mg/kg/day): 690.2 mg/cm^3
- pQCT femur metaphysis Trabecular BMC (10 mg/kg/day): 2.5 mg/mm
- pQCT femur metaphysis Trabecular BMD (10 mg/kg/day): 410.7 mg/cm^3
- pQCT femur (diaphysis) CSMI, percent difference from Vehicle Control (50 mg/kg/day): 0.6%
- pQCT femur (diaphysis) Cortical Area, percent difference from Vehicle Control (50 mg/kg/day): −0.6%
- pQCT femur (diaphysis) Cortical BMC, percent difference from Vehicle Control (50 mg/kg/day): −0.7%
- pQCT femur (diaphysis) Cortical BMD, percent difference from Vehicle Control (50 mg/kg/day): −0.1%
- pQCT femur (diaphysis) Cortical Thickness, percent difference from Vehicle Control (50 mg/kg/day): −0.01%
- pQCT femur (diaphysis) Endosteal Circumference, percent difference from Vehicle Control (50 mg/kg/day): −0.7%
- pQCT femur (diaphysis) Periosteal Circumference, percent difference from Vehicle Control (50 mg/kg/day): −0.3%
- pQCT femur (diaphysis) Total Area, percent difference from Vehicle Control (50 mg/kg/day): −0.7%
- pQCT femur (diaphysis) Total BMC, percent difference from Vehicle Control (50 mg/kg/day): 0.0%
- pQCT femur (diaphysis) Total BMD, percent difference from Vehicle Control (50 mg/kg/day): 0.9%
- pQCT femur Length, percent difference from Vehicle Control (50 mg/kg/day): −4.9%
- pQCT femur metaphysis C/SC BMC, percent difference from Vehicle Control (50 mg/kg/day): 18.4%
- pQCT femur metaphysis C/SC BMD, percent difference from Vehicle Control (50 mg/kg/day): 13.6%
- pQCT femur metaphysis Total Area, percent difference from Vehicle Control (50 mg/kg/day): 4.3%
- pQCT femur metaphysis Total BMC, percent difference from Vehicle Control (50 mg/kg/day): 33.0%
- pQCT femur metaphysis Total BMD, percent difference from Vehicle Control (50 mg/kg/day): 27.6%
- pQCT femur metaphysis Trabecular BMC, percent difference from Vehicle Control (50 mg/kg/day): 92.0%
- pQCT femur metaphysis Trabecular BMD, percent difference from Vehicle Control (50 mg/kg/day): 84.7%
- pQCT femur (diaphysis) CSMI (50 mg/kg/day): 3.9 mm^4
- pQCT femur (diaphysis) Cortical Area (50 mg/kg/day): 4.7 mm^2
- pQCT femur (diaphysis) Cortical BMC (50 mg/kg/day): 5.6 mg/mm
- pQCT femur (diaphysis) Cortical BMD (50 mg/kg/day): 1186.1 mg/cm^3
- pQCT femur (diaphysis) Cortical Thickness (50 mg/kg/day): 0.54 mm
- pQCT femur (diaphysis) Endosteal Circumference (50 mg/kg/day): 7.0 mm
- pQCT femur (diaphysis) Periosteal Circumference (50 mg/kg/day): 10.2 mm
- pQCT femur (diaphysis) Total Area (50 mg/kg/day): 8.6 mm^2
- pQCT femur (diaphysis) Total BMC (50 mg/kg/day): 6.2 mg/mm
- pQCT femur (diaphysis) Total BMD (50 mg/kg/day): 720.6 mg/cm^3
- pQCT femur Length (50 mg/kg/day): 31.6 mm
- pQCT femur metaphysis C/SC (Cortical/Subcortical) BMC (50 mg/kg/day): 8.4 mg/mm
- pQCT femur metaphysis C/SC (Cortical/Subcortical) BMD (50 mg/kg/day): 932.6 mg/cm^3
- pQCT femur metaphysis Total Area (50 mg/kg/day): 15.1 mm^2
- pQCT femur metaphysis Total BMC (50 mg/kg/day): 11.8 mg/mm
- pQCT femur metaphysis Total BMD (50 mg/kg/day): 782.0 mg/cm^3
- pQCT femur metaphysis Trabecular BMC (50 mg/kg/day): 3.4 mg/mm
- pQCT femur metaphysis Trabecular BMD (50 mg/kg/day): 556.0 mg/cm^3

From US20120270819A1, “USE OF COMPOUNDS WITH SGLT-1/SGLT-2 INHIBITOR ACTIVITY FOR PRODUCING MEDICAMENTS FOR TREATMENT OF BONE DISEASE” (SANOFI, priority 2009, published 2012)
